Data published in the NIST ThermoML archive (doi:10.1021/je050374d).
Numbers after ± are expanded uncertainties.

Assay: xn = mol fraction of the nth substance listed
Details: Liquid

C=C [ethene] + CO
Details	mass density [kg/m3]
278.15 K, x1 = 0.147	742.3 ± 8.4
278.15 K, x1 = 0.189	722.2 ± 8.9
278.15 K, x1 = 0.295	675.3 ± 10
278.15 K, x1 = 0.373	644.9 ± 11
278.15 K, x1 = 0.989	322 ± 10
283.65 K, x1 = 0.14	741.3 ± 8.4
283.65 K, x1 = 0.221	706 ± 9.3
283.65 K, x1 = 0.325	657.5 ± 10
283.65 K, x1 = 0.432	610.9 ± 12
283.65 K, x1 = 0.475	589.1 ± 12
283.65 K, x1 = 0.984	258.5 ± 8.5
